Results published in the supplement of paper PMC11061612.

Columns and labels:
Experiment in all cases: Bliss excess, mean over the matrix (fraction); higher = more synergy
[1] = tested on: C3A (Hepatocellular Carcinoma)
Summary of the method: (§1)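 Bliss excess equals the observed combination effect minus the expected value EA + EB − EA·EB, where EA and EB are the effects of each agent alone. Combination Emax is the second-highest inhibition within the matrix. Inhibition was scaled from CellTiter-Glo 2.0 luminescence, with 0 set by vehicle wells and 1 by blank wells, after 72 hours of two-drug dosing of cells plated in 1536-well plates.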

[2] = tested on: CAL-78 (Chondrosarcoma)
Summary of the method: as §1

[3] = tested on: DB (B-Cell Non-Hodgkin's Lymphoma)
Summary of the method: as §1

[4] = tested on: DOV13 (Ovarian Carcinoma)
Summary of the method: as §1

[5] = tested on: DSH1 (Bladder Carcinoma)
Summary of the method: as §1

[6] = tested on: EM-2 (Chronic Myelogenous Leukemia)
Summary of the method: as §1

[7] = tested on: ES7 (Ewing's Sarcoma)
Summary of the method: as §1

[8] = tested on: HCC2157 (Breast Carcinoma)
Summary of the method: as §1

[9] = tested on: JiyoyeP-2003 (Burkitt's Lymphoma)
Summary of the method: as §1

[10] = tested on: KARPAS-620 (Plasma Cell Myeloma)
Summary of the method: as §1

[11] = tested on: LS-513 (Colorectal Carcinoma)
Summary of the method: as §1

[12] = tested on: LU-99A (Non-Small Cell Lung Carcinoma)
Summary of the method: as §1

[13] = tested on: MDA-MB-157 (Breast Carcinoma)
Summary of the method: as §1

[14] = tested on: NALM-6 (B-Lymphoblastic Leukemia)
Summary of the method: as §1

[15] = tested on: NCI-H1299 (Non-Small Cell Lung Carcinoma)
Summary of the method: as §1

[16] = tested on: NCI-H1793 (Lung Adenocarcinoma)
Summary of the method: as §1

[17] = tested on: OCI-AML2 (Acute Myeloid Leukemia)
Summary of the method: as §1

[18] = tested on: SK-N-FI (Neuroblastoma)
Summary of the method: as §1

[19] = tested on: SUIT-2 (Pancreatic Carcinoma)
Summary of the method: as §1

[20] = tested on: U-266 (Plasma Cell Myeloma)
Summary of the method: as §1

Row | SMILES | Bliss excess [1] | Bliss excess [2] | Bliss excess [3] | Bliss excess [4] | Bliss excess [5] | Bliss excess [6] | Bliss excess [7] | Bliss excess [8] | Bliss excess [9] | Bliss excess [10] | Bliss excess [11] | Bliss excess [12] | Bliss excess [13] | Bliss excess [14] | Bliss excess [15] | Bliss excess [16] | Bliss excess [17] | Bliss excess [18] | Bliss excess [19] | Bliss excess [20]
1 | C=CCn1c(=O)c2cnc(Nc3ccc(N4CCN(C)CC4)cc3)nc2n1-c1cccc(C(C)(C)O)n1 [AZD1775] + O=C(c1cc(Cc2n[nH]c(=O)c3ccccc23)ccc1F)N1CCN(C(=O)C2CC2)CC1 [Olaparib] (first compound max 1 µM, partner max 10 µM) | -0.0179 | -0.0833 | -0.0788 | -0.0389 | -0.0534 | -0.0243 | -0.0453 | -0.0187 | -0.0086 | -0.0324 | 0.0008 | -0.0603 | -0.0379 | -0.0045 | -0.0048 | -0.0145 | 0.0249 | -0.0569 | -0.0049 | -0.0775
2 | Cc1c2c(nn1C)CSCc1cc(n(C)n1)CSc1cc(c3ccccc3c1)OCCCc1c(C(=O)O)n(C)c3c-2c(Cl)ccc13 [AZD5991] + C1CN(CCC1(C(=O)N[C@@H](CCO)C2=CC=C(C=C2)Cl)N)C3=NC=NC4=C3C=CN4 [Capivasertib] (first compound max 1 µM, 7x7, partner max 3 µM) | -0.0318 | 0.0091 | 0.0079 | 0.0055 | 0.001 | -0.0149 | 0.112 | -0.0488 | 0.0371 | -0.0097 | -0.0343 | -0.0247 | 0.0573 | 0.0149 | -0.0174 | 0.0258 | 0.0385 | 0.0211 | -0.0304 | 0.0662
3 | NC1(C(=O)N[C@@H](CCO)c2ccc(Cl)cc2)CCN(c2ncnc3[nH]ccc23)CC1 [Capivasertib] + CCN(CCO)CCCOc1ccc2c(Nc3cc(CC(=O)Nc4cccc(F)c4)[nH]n3)ncnc2c1 [AZD2811] (first compound max 10 µM, 7x7, partner max 1 µM) | -0.0156 | 0.024 | 0.0338 | -0.0392 | -0.0694 | -0.0463 | -0.0354 | -0.0286 | -0.0303 | 0.0272 | -0.0771 | 0.0154 | 0.0354 | -0.0987 | 0.0012 | -0.0515 | 0.0134 | -0.0265 | -0.0074 | -0.105
4 | Cc1c2c(nn1C)CSCc1cc(n(C)n1)CSc1cc(c3ccccc3c1)OCCCc1c(C(=O)O)n(C)c3c-2c(Cl)ccc13 [AZD5991] + C=CCn1c(=O)c2cnc(Nc3ccc(N4CCN(C)CC4)cc3)nc2n1-c1cccc(C(C)(C)O)n1 [AZD1775] (first compound max 1 µM, partner max 1 µM) | 0.0084 | -0.0193 | -0.0165 | -0.038 | -0.0115 | -0.0674 | 0.0155 | -0.0438 | -0.0253 | -0.0032 | -0.0115 | 0.017 | 0.001 | -0.0229 | -0.0048 | -0.0329 | -0.0366 | -0.0478 | 0.0014 | -0.0008
5 | NC1(C(=O)N[C@@H](CCO)c2ccc(Cl)cc2)CCN(c2ncnc3[nH]ccc23)CC1 [Capivasertib] + Cn1cnc2c(F)c(Nc3ccc(Br)cc3Cl)c(C(=O)NOCCO)cc21 [Selumetinib] (first compound max 10 µM, 7x7, partner max 10 µM) | -0.0208 | -0.0369 | -0.0093 | -0.0314 | 0.121 | 0.0766 | 0.0372 | 0.017 | 0.101 | 0.114 | 0.0031 | -0.0222 | -0.014 | 0.0323 | 0.0153 | -0.0292 | 0.0547 | -0.0313 | -0.0181 | 0.0745
6 | CN(CCO)CC[C@H](CSc1ccccc1)Nc1ccc(S(=O)(=O)NC(=O)c2ccc(N3CCC([C@@H](O)c4ccccc4-c4ccc(Cl)cc4)CC3)cc2)cc1S(=O)(=O)C(F)(F)F [AZD4320] + CN(C)CCCOc1ccc(-c2ccc3ncc4c(c3c2)n(C2CCOCC2)c(=O)n4C)cn1 [AZD0156] (first compound max 1 µM, 7x7, partner max 1 µM) | -0.0281 | -0.004 | 0.0373 | -0.0021 | 0.0303 | -0.0192 | 0.0177 | 0.009 | -0.0211 | 0.0092 | -0.0391 | -0.006 | -0.0046 | 0.0217 | -0.0462 | -0.027 | -0.0296 | -0.0252 | -0.0407 | 0.0462
7 | CC1(C)CCC(CN2CCN(c3ccc(C(=O)NS(=O)(=O)c4ccc(NCC5CCOCC5)c([N+](=O)[O-])c4)c(Oc4cnc5[nH]ccc5c4)c3)CC2)=C(c2ccc(Cl)cc2)C1 [Venetoclax] + CCN(CCO)CCCOc1ccc2c(Nc3cc(CC(=O)Nc4cccc(F)c4)[nH]n3)ncnc2c1 [AZD2811] (first compound max 1 µM, 7x7, partner max 1 µM) | -0.0359 | 0.0143 | 0.0416 | 0.0465 | -0.0142 | -0.0721 | 0.0074 | -0.0305 | 0.0467 | 0.169 | -0.0407 | -0.0012 | 0.0119 | 0.0968 | -0.0358 | -0.0039 | 0.0892 | -0.0456 | -0.0135 | -0.0216
8 | COc1cccc2c1C(=O)c1c(O)c3c(c(O)c1C2=O)C[C@@](O)(C(=O)CO)C[C@@H]3O[C@H]1C[C@H](N)[C@H](O)[C@H](C)O1 [Doxorubicin] + Cc1cc2ncnn2cc1Nc1ncc2c(n1)n(C1CCOCC1)c(=O)n2C [AZD7648] (first compound max 1 µM, 7x7, partner max 10 µM) | -0.0065 | 0.0132 | 0.0888 | 0.0218 | 0.0268 | 0.0536 | 0.0997 | 0.112 | 0.094 | -0.0381 | 0.057 | 0.0269 | 0.0033 | 0.139 | 0.0329 | 0.0117 | 0.0125 | -0.0158 | 0.0432 | 0.115
